Values joined by “and” are separate entries in the source; they are usually repeats but may differ in a detail not shown here. Equal entries are not always repeated.
How the values were obtained:
Type in all cases: functional, Homo sapiens
TERT-RPE1 = test: (§1) Here: values are normalized to the negative (DMSO; defined as 0% autophagy induction) and positive (250nM Torin1; mTOR inhibitor; defined as maximal inducer of autophagy = 100%) control compounds and represented as % of autophagy induction. […] The impact of autophagy induction on cells is complex and depends on the affected target. As such, the magnitude of a phenotype may not be equally mirrored in the %-value of autophagy induction and vice versa. The dynamics of the induction may indicate the mode of activation: e.g. activation via phosphorylation or a signaling cascade may occur fast, while activation via transcription factors may take considerably longer. […] Of note, treatment concentrations may be sub-optimal for specific compounds, leading to false negative annotations.; settings: Culturing Media DMEM/F12 (1:1), 1 % Penicillin/Streptomycin, 10% Fetal bovin serum Add-On: No, Screening Media Control DMEM/F12 (1:1), Screening Media Samples DMEM/F12 (1:1)
U2OS [1] = test: as §1; settings: Culturing Media DMEM, 1 % Penicillin/Streptomycin, 10% Fetal bovin serum Add-On: No, Screening Media Control DMEM, Screening Media Samples DMEM
U2OS [2] = test: as §1; settings: Culturing Media DMEM, 1 % Penicillin/Streptomycin, 10% Fetal bovin serum Add-On: No, Screening Media Control DMEM, Screening Media Samples DMEM; remark: listed apart in the source
[3] = Compound Concentration 0.5 uM, Timepoint 12 hours, 12 h, 0.5 µM
[4] = Compound Concentration 0.5 uM, Timepoint 24 hours, 24 h, 0.5 µM
[5] = Compound Concentration 0.5 uM, Timepoint 36 hours, 36 h, 0.5 µM
[6] = Compound Concentration 0.5 uM, Timepoint 60 hours, 60 h, 0.5 µM
[7] = Compound Concentration 2 uM, Timepoint 12 hours, 12 h, 2 µM
[8] = Compound Concentration 2 uM, Timepoint 24 hours, 24 h, 2 µM
[9] = Compound Concentration 2 uM, Timepoint 36 hours, 36 h, 2 µM
[10] = Compound Concentration 2 uM, Timepoint 60 hours, 60 h, 2 µM
[11] = Compound Concentration 10 uM, Timepoint 12 hours, 12 h, 10 µM
[12] = Compound Concentration 10 uM, Timepoint 24 hours, 24 h, 10 µM
[13] = Compound Concentration 10 uM, Timepoint 36 hours, 36 h, 10 µM
[14] = Compound Concentration 10 uM, Timepoint 60 hours, 60 h, 10 µM
[15] = Compound Concentration 0.5 uM, Timepoint 12 hours
[16] = Compound Concentration 0.5 uM, Timepoint 24 hours
[17] = Compound Concentration 0.5 uM, Timepoint 36 hours
[18] = Compound Concentration 0.5 uM, Timepoint 60 hours
[19] = Compound Concentration 2 uM, Timepoint 12 hours
[20] = Compound Concentration 2 uM, Timepoint 24 hours
[21] = Compound Concentration 2 uM, Timepoint 36 hours
[22] = Compound Concentration 2 uM, Timepoint 60 hours
[23] = Compound Concentration 10 uM, Timepoint 12 hours
[24] = Compound Concentration 10 uM, Timepoint 24 hours
[25] = Compound Concentration 10 uM, Timepoint 36 hours
[26] = Compound Concentration 10 uM, Timepoint 60 hours

Row | Compound | autophagy induction (TERT-RPE1; [3]) | autophagy induction (TERT-RPE1; [4]) | autophagy induction (TERT-RPE1; [5]) | autophagy induction (TERT-RPE1; [6]) | autophagy induction (TERT-RPE1; [7]) | autophagy induction (TERT-RPE1; [8]) | autophagy induction (TERT-RPE1; [9]) | autophagy induction (TERT-RPE1; [10]) | autophagy induction (TERT-RPE1; [11]) | autophagy induction (TERT-RPE1; [12]) | autophagy induction (TERT-RPE1; [13]) | autophagy induction (TERT-RPE1; [14]) | autophagy induction (U2OS [1]; [15]) [%] | autophagy induction (U2OS [1]; [16]) [%] | autophagy induction (U2OS [1]; [17]) [%] | autophagy induction (U2OS [1]; [18]) [%] | autophagy induction (U2OS [1]; [19]) [%] | autophagy induction (U2OS [1]; [20]) [%] | autophagy induction (U2OS [1]; [21]) [%] | autophagy induction (U2OS [1]; [22]) [%] | other results
1 | CC1=C2C[C@H]3[C@@H](CC=C4C[C@@H](O)CC[C@@]43C)[C@@H]2CC[C@]12O[C@@H]1C[C@H](C)CN[C@H]1[C@H]2C [CYCLOPAMINE] | -1.95% and 0.112% | -5.579% and 2.177% | -7.952% and 1.185% | -10.1078% and 0.5911% | -0.5068% and 11.5959% | -0.6761% and 8.252% | -1.445% and 8.279% | -2.949% and 8.955% | 18.7284% and 8.103% | 21.8058% and 8.836% | 27.6829% and 10.6231% | 29.1115% and 13.2783% | -10.7714 | -6.065 | -46.3072 | -1.6767 | -23.8167 | -9.227 | -62.0777 | -2.064 | autophagy induction (U2OS [1]; [23]): -31.4833%; autophagy induction (U2OS [1]; [24]): -9.078%; autophagy induction (U2OS [1]; [25]): -61.7295%; autophagy induction (U2OS [1]; [26]): -4.044%; autophagy induction (U2OS [2]; [15]): -5.379%; autophagy induction (U2OS [2]; [16]): -12.5809%; autophagy induction (U2OS [2]; [17]): -11.7869%; autophagy induction (U2OS [2]; [18]): -7.179%; autophagy induction (U2OS [2]; [19]): -12.942%; autophagy induction (U2OS [2]; [20]): -16.2845%; autophagy induction (U2OS [2]; [21]): -11.3886%; autophagy induction (U2OS [2]; [22]): -12.7281%; autophagy induction (U2OS [2]; [23]): -9.168%; autophagy induction (U2OS [2]; [24]): -9.072%; autophagy induction (U2OS [2]; [25]): -3.104%; autophagy induction (U2OS [2]; [26]): 2.518%
2 | Cc1c(F)cccc1NC(=O)Nc1ccc(Cl)c(S(=O)(=O)[C@H]2CCCNC2)c1O [DANIRIXIN] | -1.988% and 1.2715% | -2.9066% and -1.048% | -6.399% and -2.355% | -5.802% and -6.526% | -2.5% and 0.287% | -3.213% and -0.8718% | -5.9285% and 0.3135% | -6.839% and -1.623% | 1.595% and 0.8887% | 3.736% and 2.2115% | 4.117% and 5.758% | 6.176% and 5.1403% | 3.972 | -2.873 | -59.8201 | -1.181 | -1.664 | -3.195 | -60.7356 | -1.731 | autophagy induction (U2OS [1]; [23]): -5.705%; autophagy induction (U2OS [1]; [24]): -2.005%; autophagy induction (U2OS [1]; [25]): -60.1624%; autophagy induction (U2OS [1]; [26]): -1.218%; autophagy induction (U2OS [2]; [15]): -10.8402%; autophagy induction (U2OS [2]; [16]): -17.1359%; autophagy induction (U2OS [2]; [17]): -12.7926%; autophagy induction (U2OS [2]; [18]): -5.9905%; autophagy induction (U2OS [2]; [19]): -6.206%; autophagy induction (U2OS [2]; [20]): -10.5833%; autophagy induction (U2OS [2]; [21]): -10.8283%; autophagy induction (U2OS [2]; [22]): -13.8786%; autophagy induction (U2OS [2]; [23]): -11.164%; autophagy induction (U2OS [2]; [24]): -5.925%; autophagy induction (U2OS [2]; [25]): -8.152%; autophagy induction (U2OS [2]; [26]): -8.851%

— ChEMBL document CHEMBL5724696, “Autophagy assay results for EUbOPEN Chemogenomics Library” (2024)
